IC50 data for 38 molecules are collected here from US12600725B2 (Memorial Sloan-Kettering Cancer Center, priority 2013, dated 2026).

One assay deals with Hsp90α (Homo sapiens, UniProt P07900). Description: biochemical. Conditions: FP competition, 6 nM Cy3B-GM, 10 nM protein, 4° C. for 24 h.
In the next assay the target is Grp94 (Canis lupus familiaris, UniProt P41148). Conditions: read-out: Grp94; FP competition, 6 nM Cy3B-GM, 10 nM protein, 4° C. for 24 h.

A value given as a limit tells only on which side of the number the result lay.

Sequence of Grp94 (P41148 with tags, fused parts or gaps DELINS287-327GGGG): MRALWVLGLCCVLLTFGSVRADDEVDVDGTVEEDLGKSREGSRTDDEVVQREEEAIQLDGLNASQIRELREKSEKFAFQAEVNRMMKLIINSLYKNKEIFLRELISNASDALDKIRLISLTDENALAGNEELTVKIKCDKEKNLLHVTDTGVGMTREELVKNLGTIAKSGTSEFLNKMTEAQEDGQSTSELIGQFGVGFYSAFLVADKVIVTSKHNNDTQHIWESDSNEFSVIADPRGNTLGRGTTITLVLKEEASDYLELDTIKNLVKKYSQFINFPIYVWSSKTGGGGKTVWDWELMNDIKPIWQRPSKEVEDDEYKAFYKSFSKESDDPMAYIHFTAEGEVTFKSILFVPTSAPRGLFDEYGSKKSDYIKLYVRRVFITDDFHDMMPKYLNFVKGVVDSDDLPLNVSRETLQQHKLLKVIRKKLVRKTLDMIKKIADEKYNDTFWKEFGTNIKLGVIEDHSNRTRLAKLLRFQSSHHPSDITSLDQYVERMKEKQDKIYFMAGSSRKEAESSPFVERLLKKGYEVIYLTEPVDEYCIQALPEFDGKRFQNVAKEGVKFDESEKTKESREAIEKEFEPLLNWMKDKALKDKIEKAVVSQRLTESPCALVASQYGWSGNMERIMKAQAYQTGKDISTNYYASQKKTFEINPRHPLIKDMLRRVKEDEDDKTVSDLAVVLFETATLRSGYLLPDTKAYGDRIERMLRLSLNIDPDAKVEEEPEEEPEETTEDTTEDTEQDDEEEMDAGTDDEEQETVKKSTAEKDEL

With `Nc1ncnc2c1nc(Sc1cc(Cl)cc(Cl)c1)n2CCCN1CC(O)C1` [HJP-V-134, 1-(3-(6-amino-8-((3,5-dichlorophenyl)thio)-9H-purin-9-yl)propyl)azetidin-3-ol], the values for the IC50 at Hsp90α and on Grp94 were above 10 µM and 0.38 µM, respectively.
For `Nc1ncnc2c1nc(Sc1cc(Cl)cc(Cl)c1)n2CCc1cccnc1` [HJP-V-140, 8-((3,5-dichlorophenyl)thio)-9-(2-(pyridin-3-yl)ethyl)-9H-purin-6-amine] the same measures were above 50 µM and 7.9 µM.
For `Nc1ncnc2c1nc(Sc1cc(Cl)cc(I)c1)n2CCc1cccnc1` [HJP-V-147, 8-((3-chloro-5-iodophenyl)thio)-9-(2-(pyridin-3-yl)ethyl)-9H-purin-6-amine] the same measures were 72.5 µM and 0.86 µM.
The matching figures for `COc1ccc(-c2cc(Cl)cc(Sc3nc4c(N)ncnc4n3CCCNC(C)C)c2)cc1` [HJP-VI-3, 8-((5-chloro-4′-methoxy-[1,1′-biphenyl]-3-yl)thio)-9-(3-(isopropylamino)propyl)-9H-purin-6-amine]: above 25 µM and 2.7 µM.
`COc1cccc(-c2cc(Cl)cc(Sc3nc4c(N)ncnc4n3CCCNC(C)C)c2)c1` [HJP-VI-7, 8-((5-chloro-3′-methoxy-[1,1′-biphenyl]-3-yl)thio)-9-(3-(isopropylamino)propyl)-9H-purin-6-amine]: the IC50 on Hsp90α came to 47.5 µM; on Grp94, 0.26 µM.
`CC(C)NCCCn1c(Sc2cc(Cl)cc(-c3cccc([N+](=O)[O-])c3)c2)nc2c(N)ncnc21` [HJP-VI-8, 8-((5-chloro-3′-nitro-[1,1′-biphenyl]-3-yl)thio)-9-(3-(isopropylamino)propyl)-9H-purin-6-amine]: the figures for the IC50 at Hsp90α and on Grp94 were 47.3 µM and 0.58 µM, respectively.
For `CC(C)NCCCn1c(Sc2cc(Cl)cc(-c3cccc(C(F)(F)F)c3)c2)nc2c(N)ncnc21` [HJP-VI-9, 8-((5-chloro-3′-(trifluoromethyl)-[1,1′-biphenyl]-3-yl)thio)-9-(3-(isopropylamino)propyl)-9H-purin-6-amine] the same measures were 13.8 µM and 0.26 µM.
The matching figures for `CC(C)NCCCn1c(Sc2cc(Cl)cc(-c3cccs3)c2)nc2c(N)ncnc21` [HJP-VI-10, 8-((3-chloro-5-(thiophen-2-yl)phenyl)thio)-9-(3-(isopropylamino)propyl)-9H-purin-6-amine]: 7.9 µM and 0.16 µM.
For `CC(C)=C(C)c1cc(Cl)cc(Sc2nc3c(N)ncnc3n2CCCNC(C)C)c1` [HJP-VI-14, 8-((3-chloro-5-(3-methylbut-2-en-2-yl)phenyl)thio)-9-(3-(isopropylamino)propyl)-9H-purin-6-amine] the same measures were above 50 µM and 0.16 µM.
In the case of `CC(C)NCCCn1c(Sc2ccc(Cl)cc2F)nc2c(N)ncnc21` [HJP-VI-23, 8-((4-chloro-2-fluorophenyl)thio)-9-(3-(isopropylamino)propyl)-9H-purin-6-amine], the IC50 at Hsp90α is above 50 µM; on Grp94, 1.5 µM.
The matching figures for `CC(C)NCCCn1c(Sc2cc(Cl)cc(-c3ccco3)c2)nc2c(N)ncnc21` [HJP-VI-30, 8-((3-chloro-5-(furan-2-yl)phenyl)thio)-9-(3-(isopropylamino)propyl)-9H-purin-6-amine]: 16.7 µM and 0.32 µM.
As to `CC(C)NCCCn1c(Sc2ccc(Cl)cc2[N+](=O)[O-])nc2c(N)ncnc21` [HJP-VI-32, 8-((4-chloro-2-nitrophenyl)thio)-9-(3-(isopropylamino)propyl)-9H-purin-6-amine], the IC50 at Hsp90α was 14.2 µM; on Grp94, above 5 µM.
On to `Cc1ccc(-c2cc(Cl)cc(Sc3nc4c(N)ncnc4n3CCCNC(C)C)c2)o1` [HJP-VI-38, 8-((3-chloro-5-(5-methylfuran-2-yl)phenyl)thio)-9-(3-(isopropylamino)propyl)-9H-purin-6-amine], for which the IC50 stood at 25.9 µM on Hsp90α and 0.75 µM on Grp94.
As for `CC(C)NCCCn1c(Sc2ccc(Cl)cc2-c2ccc[nH]2)nc2c(N)ncnc21` [HJP-VI-42, 8-((4-chloro-2-(1H-pyrrol-2-yl)phenyl)thio)-9-(3-(isopropylamino)propyl)-9H-purin-6-amine], the IC50 on Hsp90α turned out to be 66.9 µM; at Grp94 it was 1.1 µM.
For `CC(C)NCCCn1c(Sc2cc(Cl)cc(-c3cn[nH]c3)c2)nc2c(N)ncnc21` [HJP-VI-46, 8-((3-chloro-5-(1H-pyrazol-4-yl)phenyl)thio)-9-(3-(isopropylamino)propyl)-9H-purin-6-amine] the same measures were 15.9 µM and 1.9 µM.
The matching figures for `CC(C)C#Cc1cc(Cl)cc(Sc2nc3c(N)ncnc3n2CCCNC(C)C)c1` [HJP-VI-51, 8-((3-chloro-5-(3-methylbut-1-yn-1-yl)phenyl)thio)-9-(3-(isopropylamino)propyl)-9H-purin-6-amine]: above 50 µM and 1.2 µM.
The matching figures for `CC(C)NCCCn1c(Sc2cc(Cl)cc(C#CC3CC3)c2)nc2c(N)ncnc21` [HJP-VI-52, 8-((3-chloro-5-(cyclopropylethynyl)phenyl)thio)-9-(3-(isopropylamino)propyl)-9H-purin-6-amine]: above 50 µM and 0.18 µM.
Regarding `CC(C)NCCCn1c(Sc2cc(Cl)cc(C#CC(C)(C)C)c2)nc2c(N)ncnc21` [HJP-VI-53, 8-((3-chloro-5-(3,3-dimethylbut-1-yn-1-yl)phenyl)thio)-9-(3-(isopropylamino)propyl)-9H-purin-6-amine], the IC50 was above 50 µM on Hsp90α and 0.63 µM at Grp94.
For `CC(C)NCCCn1c(Sc2cc(Cl)cc(C#CCO)c2)nc2c(N)ncnc21` [HJP-VI-58, 3-(3-((6-amino-9-(3-(isopropylamino)propyl)-9H-purin-8-yl)thio)-5-chlorophenyl)prop-2-yn-1-ol] the same measures were above 50 µM and 5.8 µM.
The matching figures for `CC(O)C#Cc1cc(Cl)cc(Sc2nc3c(N)ncnc3n2CCCNC(C)C)c1` (stereo not shown) [HJP-VI-59, 4-(3-((6-amino-9-(3-(isopropylamino)propyl)-9H-purin-8-yl)thio)-5-chlorophenyl)but-3-yn-2-ol]: above 50 µM and 7.4 µM.
The matching figures for `CC(C)=Cc1cc(Cl)cc(Sc2nc3c(N)ncnc3n2CCCNC(C)C)c1` [HJP-VI-62, 8-((3-chloro-5-(2-methylprop-1-en-1-yl)phenyl)thio)-9-(3-(isopropylamino)propyl)-9H-purin-6-amine]: above 50 µM and 0.28 µM.
With `CC(C)NCCCn1c(Sc2cc(Cl)cc(/C=C/C3CC3)c2)nc2c(N)ncnc21` [HJP-VI-64, (E)-8-((3-chloro-5-(2-cyclopropylvinyl)phenyl)thio)-9-(3-(isopropylamino)propyl)-9H-purin-6-amine], the IC50 at Hsp90α is above 50 µM; at Grp94 it was 0.24 µM.
For `C#CCCCn1c(Sc2cc(Cl)nc(Cl)c2)nc2c(N)ncnc21` [HJP-VI-66, 8-((2,6-dichloropyridin-4-yl)thio)-9-(pent-4-yn-1-yl)-9H-purin-6-amine] the same measures were above 5 µM and 1.9 µM.
The matching figures for `CC(C)NCCCn1c(Sc2cc(Cl)cc(/C=C/C(C)(C)C)c2)nc2c(N)ncnc21` [HJP-VI-72, (E)-8-((3-chloro-5-(3,3-dimethylbut-1-en-1-yl)phenyl)thio)-9-(3-(isopropylamino)propyl)-9H-purin-6-amine]: 14.2 µM and 0.102 µM.
For `CC(C)NCCCn1c(Sc2ccc(Cl)cc2Cl)nc2c(N)nccc21` [HJP-VI-101, 2-((2,4-dichlorophenyl)thio)-1-(3-(isopropylamino)propyl)-1H-imidazo[4,5-c]pyridin-4-amine] the same measures were 9.2 µM and above 5 µM.
With `C#CCCn1cnc(N)c2nc(Sc3cc(Cl)cc(Cl)c3)nc1-2` [PDP-I-14-N3, 3-(But-3-yn-1-yl)-8-((3,5-dichlorophenyl)thio)-3H-purin-6-amine], the IC50 on Hsp90α is above 50 µM; at Grp94, above 5 µM.
`C#CCCCn1cnc(N)c2nc(Sc3cccc4ccccc34)nc1-2` [PDP-I-16-N3]: the IC50 is above 100 µM at Hsp90α and above 5 µM at Grp94.
The matching figures for `C#CCCCn1cnc(N)c2nc(Sc3ccc(Cl)c(Cl)c3)nc1-2` [PDP-I-25-N3]: above 50 µM and 11.1 µM.
Turning to `C#CCCCn1cnc(N)c2nc(Sc3ccc(-n4cccc4)cc3)nc1-2` [PDP-I-51-N3], the IC50 at Hsp90α is above 50 µM; at Grp94 it was above 5 µM.
The matching figures for `C#CCCCn1c(Sc2ccc(-n3cccc3)cc2)nc2c(N)ncnc21` [PDP-I-51-N9]: above 50 µM and above 10 µM.
`C#CCCCn1cnc(N)c2nc(Sc3ccc(Br)cc3CC)nc1-2` [PDP-I-54-N3]: the IC50 on Hsp90α was above 50 µM; on Grp94, above 10 µM.
The matching figures for `C#CCCCn1c(Sc2cc(Br)cc3ccn(Cc4ccc(OC)cc4)c23)nc2c(N)ncnc21` [PDP-I-55-N9]: above 50 µM and above 5 µM.
The matching figures for `C#CCCCn1cnc(N)c2nc(Sc3cn(Cc4ccc(OC)cc4)c4ncc(Br)cc34)nc1-2` [PDP-I-58-N3]: above 50 µM and above 10 µM.
With `C#CCCCn1c(Sc2cn(Cc3ccc(OC)cc3)c3ncc(Br)cc23)nc2c(N)ncnc21` [PDP-I-58-N9], the IC50 was above 50 µM at Hsp90α and above 10 µM on Grp94.
As for `C#CCCCn1cnc(N)c2nc(Sc3ccc(Cl)c4ccccc34)nc1-2` [PDP-I-77-N3], the IC50 on Hsp90α is above 50 µM; at Grp94, above 5 µM.
For `C#CCCCn1c(Sc2ccc(Cl)c3ccccc23)nc2c(N)ncnc21` [PDP-I-77-N9] the same measures were above 50 µM and above 2 µM.
The matching figures for `C#CCCCn1cnc(N)c2nc(Sc3cc(Cl)cc4c(Cl)ccnc34)nc1-2` [PDP-I-79-N3]: above 50 µM and above 5 µM.
For `C#CCCCn1c(Sc2ccc(Cl)cc2)nc2c(N)ncnc21` [PU-H7], the figures for the IC50 on Hsp90α and on Grp94 were above 100 µM and 1.5 ± 0.2 µM, respectively.
